US12168019B1, “8-hydroxy quinoline derivatives for enhancing telomerase reverse transcriptase (TERT) expression” (Sierra Sciences, Inc., priority 2010, dated 2024)

System: human TERT expression (hTERT mRNA transcripts)
Test: Quantitative real-time RT-PCR of hTERT mRNA transcripts in compound-treated cells; further: test concentration or dose not given here
Type: cell-based
Text: Telomerase is a ribonucleoprotein complex composed of the catalytic protein subunit (human telomerase reverse transcriptase or hTERT) and the RNA template. hTERT expression level can be measured by PCR.
Quantitative Reverse Transcription PCR can be run according to procedures outlined in Yajima et al. (Yajima, T. et al. Quantitative Reverse Transcription-PCR Assay of the RNA Component of Human Telomerase Using the TaqMan Fluorogenic Detection System Clinical Chemistry, 44:12, 2441-2445, 1998).
The principle of real-time PCR was first described by Heid et al. (Heid C. A., Stevens J., Livak K. J., Williams P. M. Real time quantitative PCR. Genome Res., 6: 986-994, 1996). Briefly, amplification of the target sequence is monitored per PCR cycle by detecting the fluorescence signal emitted by an internal probe that is degraded by the 5′ nuclease activity of the Taq polymerase. The emission signal accumulates in each sample, and the Ct required to reach a given fluorescence threshold is determined (Ct stands for Cycle Threshold and is a measure of the number of PCR cycles that are required to amplify a target—thus, a lower Ct score means that there is more abundant hTERT mRNA). Thus, the C1 value of a sample inversely correlates to the quantity of the starting cDNA which correlates to the number of mRNA transcripts. Using the cDNA of known quantity, a standard curve can be generated and used to determine the starting amount of mRNA transcripts based on the […] of each sample.
Quantitative real-time PCR can be done on cDNA from test compound-treated and nontreated cells by use of a ABI Prism 7900 Sequence Detection System (PE Applied Biosystems, Foster City, CA) following the Assays-on-Demand protocol (PE Applied Biosystems, Foster City, CA). Quantitative data can be analyzed using the Sequence Detection System software version 2.1 (PE Applied Biosystems).
The following compounds were tested in assays designed to identify compounds that enhance human TERT expression. The compounds turned on human TERT expression in these assays.

| SMILES | Average Number of hTERT Transcripts |
| --- | --- |
| CCC(=O)NC(c1ccc(N(C)C)cc1)c1ccc2cccnc2c1O (stereo not drawn) [Compound 1001] | 12.47 |
| CN1CCN(Cc2cc(COCc3ccccc3)c3cccnc3c2O)CC1 [Compound 1003] | 10.05 |
| Oc1c(C(Nc2ccccn2)c2ccc(OC3CCCC3)cc2)ccc2cccnc12 (stereo not drawn) [Compound 1004] | 12.11 |
| Oc1c(C(Nc2ccccn2)c2cccc(Cl)c2Cl)ccc2cccnc12 (stereo not drawn) [Compound 1006] | 25.82 |
| COC(=O)c1ccc(C(Nc2cc(C)ccn2)c2ccc3ccc(C)nc3c2O)cc1 (stereo not drawn) [Compound 1008] | 43.18 |
| Oc1c(C(Nc2ccccn2)c2c(Cl)cccc2Cl)ccc2cccnc12 (stereo not drawn) [Compound 1009] | 50.29 |
| COc1ccc(C(=O)NC(c2ccco2)c2cc(Cl)c3cccnc3c2O)cc1 (stereo not drawn) [Compound 1012] | 12.01 |
| COc1cccc(C(=O)NC(c2ccc(OC)c(OC)c2)c2cc(Cl)c3cccnc3c2O)c1 (stereo not drawn) [Compound 1013] | 40.42 |
| COc1ccc(C(=O)NC(c2ccc(Cl)cc2)c2cc(Cl)c3cccnc3c2O)cc1 (stereo not drawn) [Compound 1014] | 11.55 |
| O=C(COc1ccccc1)NC(/C=C/c1ccccc1)c1cc(Cl)c2cccnc2c1O (stereo not drawn) [Compound 1015] | 63.93 |
| COc1ccc(C(=O)NC(/C=C/c2ccccc2)c2cc(Cl)c3cccnc3c2O)cc1 (stereo not drawn) [Compound 1016] | 10.9 |
| COc1cccc(C(=O)NC(/C=C/c2ccccc2)c2cc(Cl)c3cccnc3c2O)c1 (stereo not drawn) [Compound 1017] | 96.98 |
| Oc1c(Br)cc(Br)c2cccnc12 [Compound 1019] | 271.75 |
| Oc1c(I)cc(Cl)c2cccnc12 [Compound 1021] | 60.68 |
| CC(=O)NC(c1ccc(Br)cc1)c1ccc2cccnc2c1O (stereo not drawn) [Compound 1022] | 60.01 |
| COc1ccc(C(NC(C)=O)c2ccc3cccnc3c2O)cc1OC (stereo not drawn) [Compound 1023] | 160.65 |
| CC(=O)NC(c1ccc(C)cc1)c1ccc2cccnc2c1O (stereo not drawn) [Compound 1024] | 165.68 |
| CCCCC(=O)NC(c1ccccc1OC)c1cc([N+](=O)[O-])c2cccnc2c1O (stereo not drawn) [Compound 1027] | 19.72 |
| CC(=O)NC(c1ccc(C(C)C)cc1)c1ccc2cccnc2c1O (stereo not drawn) [Compound 1030] | 26.47 |
| CCCCC(=O)NC(c1ccccc1Cl)c1cc([N+](=O)[O-])c2cccnc2c1O (stereo not drawn) [Compound 1031] | 44.8 |
| CCC(=O)NC(c1ccc(OC)c(OC)c1)c1cc(Cl)c2cccnc2c1O (stereo not drawn) [Compound 1032] | 39.96 |
| CCOc1cc(C(NC(C)=O)c2cc([N+](=O)[O-])c3cccnc3c2O)ccc1O (stereo not drawn) [Compound 1033] | 28.91 |

| SMILES | Average Number of hTERT Transcripts |
| --- | --- |
| CC(=O)NC(c1ccco1)c1cc([N+](=O)[O-])c2cccnc2c1O (stereo not drawn) [Compound 1034] | 44.71 |
| CCC(=O)NC(/C=C/c1ccccc1)c1cc([N+](=O)[O-])c2cccnc2c1O (stereo not drawn) [Compound 1035] | 66.72 |
| CCCC(=O)NC(c1ccc(O)c(OCC)c1)c1cc([N+](=O)[O-])c2cccnc2c1O (stereo not drawn) [Compound 1036] | 65 |
| CC(=O)NC(c1ccc(Cl)cc1)c1cc([N+](=O)[O-])c2cccnc2c1O (stereo not drawn) [Compound 1037] | 55.41 |
| CCC(=O)NC(c1ccco1)c1cc(Cl)c2cccnc2c1O (stereo not drawn) [Compound 1039] | 30.9 |
| CCCCC(=O)NC(c1ccc(OC)cc1)c1cc([N+](=O)[O-])c2cccnc2c1O (stereo not drawn) [Compound 1040] | 25.16 |
| CCC(=O)NC(c1ccccc1Cl)c1cc(Cl)c2cccnc2c1O (stereo not drawn) [Compound 1041] | 20.78 |
| CC(C)C(=O)NC(c1ccc(Cl)cc1Cl)c1ccc2cccnc2c1O (stereo not drawn) [Compound 1042] | 10.53 |
| CCC(=O)NC(c1ccccc1OC)c1cc(Cl)c2cccnc2c1O (stereo not drawn) [Compound 1043] | 15.13 |
| CCCC(=O)NC(c1ccc(Cl)cc1)c1cc([N+](=O)[O-])c2cccnc2c1O (stereo not drawn) [Compound 1044] | 92.93 |
| Cc1ccc(C(NC(=O)C2CCCCC2)c2ccc3cccnc3c2O)cc1 (stereo not drawn) [Compound 1047] | 43.89 |
| CCCC(=O)NC(c1cccs1)c1cc([N+](=O)[O-])c2cccnc2c1O (stereo not drawn) [Compound 1048] | 58.04 |
| CCC(=O)NC(c1ccc(C)cc1)c1cc([N+](=O)[O-])c2cccnc2c1O (stereo not drawn) [Compound 1049] | 49.12 |
| CC(=O)NC(c1ccccc1)c1cc([N+](=O)[O-])c2cccnc2c1O (stereo not drawn) [Compound 1050] | 47.68 |
| CCC(=O)NC(c1ccccc1OC)c1cc([N+](=O)[O-])c2cccnc2c1O (stereo not drawn) [Compound 1051] | 45.24 |
| CCCCC(=O)NC(c1ccc(OC)c(OC)c1)c1cc([N+](=O)[O-])c2cccnc2c1O (stereo not drawn) [Compound 1053] | 47.54 |
| CCCCC(=O)NC(c1ccc(Cl)cc1)c1cc([N+](=O)[O-])c2cccnc2c1O (stereo not drawn) [Compound 1054] | 8.59 |
| CCCCC(=O)NC(c1ccco1)c1cc([N+](=O)[O-])c2cccnc2c1O (stereo not drawn) [Compound 1055] | 28.89 |
| CCCC(=O)NC(c1ccc(C(C)C)cc1)c1cc([N+](=O)[O-])c2cccnc2c1O (stereo not drawn) [Compound 1056] | 62.15 |
| CC(=O)NC(c1ccc(C(C)C)cc1)c1cc(Cl)c2cccnc2c1O (stereo not drawn) [Compound 1057] | 12.42 |
| CC(=O)NC(c1cccs1)c1ccc2cccnc2c1O (stereo not drawn) [Compound 1058] | 47.99 |
| CCN(CC)c1ccc(C(NC(=O)C(C)C)c2ccc3cccnc3c2O)cc1 (stereo not drawn) [Compound 1060] | 65.91 |

| SMILES | Average Number of hTERT Transcripts |
| --- | --- |
| CCCCC(=O)NC(c1ccc(OC)cc1)c1cc(Cl)c2cccnc2c1O (stereo not drawn) [Compound 1061] | 128.91 |
| CC(C)C(=O)NC(c1ccc(C(C)C)cc1)c1cc(Cl)c2cccnc2c1O (stereo not drawn) [Compound 1062] | 47.98 |
| CCCCC(=O)NC(c1cccs1)c1cc([N+](=O)[O-])c2cccnc2c1O (stereo not drawn) [Compound 1063] | 205.2 |
| CC(C)C(=O)NC(c1ccc2c(c1)OCO2)c1cc([N+](=O)[O-])c2cccnc2c1O (stereo not drawn) [Compound 1064] | 52.74 |
| O=C(CCc1ccccc1)NC(c1ccc2c(c1)OCO2)c1ccc2cccnc2c1O (stereo not drawn) [Compound 1065] | 24.47 |
| CCCC(=O)NC(c1ccc(N(C)C)cc1)c1cc(Cl)c2cccnc2c1O (stereo not drawn) [Compound 1066] | 43.68 |
| CCCCC(=O)NC(c1cccs1)c1cc(Cl)c2cccnc2c1O (stereo not drawn) [Compound 1067] | 16.2 |
| CCCCC(=O)NC(/C=C/c1ccccc1)c1cc([N+](=O)[O-])c2cccnc2c1O (stereo not drawn) [Compound 1069] | 101.8 |
| CCCC(=O)NC(c1ccc(N(CC)CC)cc1)c1cc(Cl)c2cccnc2c1O (stereo not drawn) [Compound 1070] | 68.65 |
| CC(C)C(=O)NC(c1ccc(C(C)C)cc1)c1cc([N+](=O)[O-])c2cccnc2c1O (stereo not drawn) [Compound 1071] | 70.74 |
| COc1ccc(C(NC(=O)C2CCCCC2)c2cc([N+](=O)[O-])c3cccnc3c2O)cc1OC (stereo not drawn) [Compound 1072] | 93.44 |
| CCC(=O)NC(c1ccccc1Cl)c1cc([N+](=O)[O-])c2cccnc2c1O (stereo not drawn) [Compound 1074] | 49.89 |
| CCCC(=O)NC(c1ccco1)c1cc(Cl)c2cccnc2c1O (stereo not drawn) [Compound 1077] | 15.88 |
| Cc1ccc2ccc(C(Nc3ccccn3)c3cccc([N+](=O)[O-])c3)c(O)c2n1 (stereo not drawn) [Compound 1078] | 36.96 |
| Cc1ccnc(NC(c2cccc(Cl)c2)c2ccc3ccc(C)nc3c2O)c1 (stereo not drawn) [Compound 1080] | 26.36 |
| Oc1c(C(Nc2ccccn2)c2ccc(Cl)c(Cl)c2)ccc2cccnc12 (stereo not drawn) [Compound 1082] | 7.54 |
| Cc1ccnc(NC(c2cccc(Br)c2)c2ccc3ccc(C)nc3c2O)c1 (stereo not drawn) [Compound 1083] | 18.44 |
| O=C(NC(c1ccccc1)c1ccc2cccnc2c1O)c1ccccc1 (stereo not drawn) [Compound 1086] | 48.77 |
| CC(C)C(=O)NC(c1ccco1)c1ccc2cccnc2c1O (stereo not drawn) [Compound 1087] | 240.41 |
| Cc1ccc(C(NC(=O)C(C)C)c2ccc3cccnc3c2O)cc1 (stereo not drawn) [Compound 1088] | 191.81 |
| CCN1CCN(Cc2ccc3cccnc3c2O)CC1 [Compound 1089] | 38.29 |
| Cc1ccc(S(=O)(=O)Nc2cc(Cl)c(O)c3ncccc23)cc1 [Compound 1092] | 96.33 |
